Here are results for one compound from patent US20250338851A1, “Boosted IPBC for Wet-State Bacterial Control” (Troy Technology II, Inc., priority 2021, published 2025).

Structures are written as SMILES. “And” between values parts separate entries of the source, which are not always exact repeats. Equal values may be shown once.

Type in all cases: cell-based
Assay [1] relates to Pseudomonas aeruginosa (ATCC #10145). Kind of assay: Checkerboard assay. The conditions noted are these: alone, 100-500 ppm; 24 hours of incubation. The protocol: The checkerboard assay was performed by separately dosing Polyphase PW40 (40% IPBC) and a 20% nanoparticle ZnO dispersion (Sigma #721077) into 100 microliters of Mueller Hinton Broth containing ˜1.0*10^5 CFU/mL of Pseudomonas aeruginosa (ATCC #10145). The plate was then incubated overnight at 37° C. with constant double orbital shaking. The next day, the dispersions were allowed to settle on the bench for 2 hours and the plate was photographed. Growth in this assay was defined as the turbidity of the supernatant.

Assay [2] shares this test system. As to the kind of experiment: Growth curves (OD600). How it is done: To generate growth curves, overnight cultures of Pseudomonas aeruginosa (ATCC #10145) from Plate Count Agar were lifted and resuspended in dH2O and adjusted to OD600=0.01 with sterile Mueller Hinton Broth (MHB). This culture was distributed into wells of an uncovered 96-well plate with the indicated biocides. The OD600 was then measured initially and then every 30′ for 16 hours at 37° C. with constant double orbital shaking. Due to the opacity of the samples dosed with some test compounds, the curves were generated by background subtracting from wells containing sterile MHB and then subtracted from their initial (t=0) measurement.

Assay [3] shares this test system. As to the kind of experiment: Kill curve. The conditions noted are these: 0.2%. The protocol: Overnight cultures of Pseudomonas aeruginosa (ATCC #10145) growing in Tryptic Soy Broth were diluted to OD600=0.7 in Mueller Hinton Broth containing the indicated level of test compound. Samples containing IPBC were dosed with Polyphase PW40 (40% IPBC). Samples containing ZnO were dosed from a 50% ZnO dispersion (“1678-54”). Time points were collected by adding 1 mL of the sample into 9 mL of Dey-Engley Neutralizing Broth and performing a serial dilution in 1× Butterfield's Phosphate Buffer. Counts were obtained from pour plates in Tryptic Soy Agar after overnight incubation at 35° C.

The test system of assay [4] is Burkholderia sp. Troy JZ2. Kind of assay: Minimum inhibitory concentration testing (microbroth dilution) and synergy index. The conditions noted are these: Burkholderia, 24 h. How it is done:
(§1) MICs were determined via microbroth dilution using the following specific test parameters:
(§2) Necessary organism dilutions via OD600 were calculated based on OD600 of 1.0 being equivalent to 8×10^8 CFU/mL. Biocide dilutions were performed in 2-fold increments for each assay.
(§3) Synergy index (SI) scores were calculated according to the mass action equation below: […]
(§4) S.I.[MIC[A]in-blend/MIC[A]alone]+[MIC[B]in-blend/MIC[B]alone]
(§5) Combinations of ingredients were determined to be synergistic (S.I.<0.5), additive (S.I.>0.5 to 1), indifferent (S.I.>1 to <2) or antagonistic (S.I.>2), as defined by EUCAST guidelines. See European Committee for Antimicrobial Susceptibility Testing (EUCAST) of the European Society of Clinical Microbiology and Infectious Diseases (ESCMID). EUCAST Definitive Document E.Def 1.2, May 2000: Terminology relating to methods for the determination of susceptibility of bacteria to antimicrobial agents, Clin. Microbiol. Infect. Off Publ. Eur. Soc. Clin. Microbiol. Infect. Dis. 6, 503-508 (2000); Helander I. M., Mattila-Sandholm T., Fluorometric assessment of gram-negative bacterial permeabilization, J. Appl. Microbiol. 88:213-219 (2000).

The test system of the next assay is Bacillus sp. Troy JZ14. Described as above. The conditions noted are these: Bacillus; 96 well microbroth dilution, MHB, 24 hours of incubation; read-out: MIC. How it is done: as §1, §2, §3, §4, §5
For assay [5], the system named is P. aeruginosa ATCC #10145. Described as above. The conditions noted are these: Pseudomonas aeruginosa, ATCC10145, 24 h. The protocol: as §1
(§6) Biocide dilutions were performed in 2-fold increments for each assay.
as §3, §4
(§7) Combinations of ingredients were determined to be synergistic (S.I.<0.5), additive (S.I.>0.5 to 1), indifferent (S.I.>1 to <2) or antagonistic (S.I.>2), as defined by EUCAST guidelines. See European Committee for Antimicrobial Susceptibility Testing (EUCAST) of the European Society of Clinical Microbiology and Infectious Diseases (ESCMID). EUCAST Definitive Document E.Def 1.2, May 2000: Terminology relating to methods for the determination of susceptibility of bacteria to antimicrobial agents, Clin. Microbiol. Infect. Off Publ. Eur. Soc. Clin. Microbiol. Infect. Dis. […] Microbiol.

Another assay concerns S. aureus ATCC #6538. Described as above. The conditions noted are these: Staphylococcus aureus, ATCC6538; 96 well microbroth dilution, MHB, 24 hours of incubation; read-out: MIC. How it is done: as §1, §6, §3, §4, §7
A further assay concerns E. coli ATCC #11229. The description is as above. The conditions noted are these: Escherichia coli, ATCC11229; 96 well microbroth dilution, MHB, 24 hours of incubation; read-out: MIC. The protocol:
as §1, §6, §3, §4, §7

Assay [6] deals with Microbacterium sp. Troy JZ13. The assay is described as above. The conditions noted are these: 96 well microbroth dilution, MHB, 24 hours of incubation; read-out: MIC. How it is done: as §1, §6, §3, §4, §7
Another assay relates to E. aerogenes ATCC #13048. The assay is described as above. The conditions noted are these: Klebsiella aerogenes, ATCC13048; 96 well microbroth dilution, MHB, 24 hours of incubation; read-out: MIC. How it is done: as §1, §6, §3, §4, §7
Assay [7] concerns Pseudomonas sp. Troy JZ103. The description is as above. The conditions noted are these: Pseudomonas; 96 well microbroth dilution, MHB, 24 hours of incubation; read-out: MIC. The protocol:
as §1, §6, §3, §4, §7

On to `CCCCNC(=O)OCC#CI` [IPBC, 3-iodoprop-2-yn-1-yl butylcarbamate], for which, in [1], the “Turbidity of wells (growth)” value is recorded as “turbid”. For the same compound, the Pseudomonas growth result was “complete growth inhibition” in [2] (400 ppm IPBC (0.1% w/w Polyphase PW40) with ≥0.25 mM PAβN, 16 hours); “growth” in assay [2] (400 ppm alone, 16 hours); “weaker IPBC potentiation” in [2] (IPBC with PAβN in the presence of 1 mM MgCl2); “no Pseudomonas inhibition” in assay [2] (control, without PAβN (FIG. 1C)). Also, the “Kill curve CFU/mL” value in assay [3] (0 hrs) is 5.40E+06 CFU/mL and 7.00E+06 CFU/mL; in assay [3] (2 hrs) it was 7.10E+06 CFU/mL and 7.30E+06 CFU/mL; in assay [3] (24 hrs), 1.33E+10 CFU/mL and 1.45E+10 CFU/mL; in [3] (48 hrs), 4.90E+09 CFU/mL and 3.80E+09 CFU/mL. Moreover, the minimum inhibitory concentration (MIC) is 63 µg/mL in assay [4]; 9 µg/mL in the assay with Bacillus sp. Troy JZ14; at least 400 µg/mL in assay [5]; 450 µg/mL in the assay with S. aureus ATCC #6538; 2400 µg/mL with E. coli ATCC #11229; 11 µg/mL in [6]. Moreover, the MIC was 1000 µg/mL with E. aerogenes ATCC #13048 and 300 µg/mL in assay [7].
